# Experiments:
# Homo sapiens TREK-2 = target: T1, Homo sapiens TREK-2 (Homo sapiens, UniProt P57789); assay: Excised inside-out patch recording of TREK-2 from Xenopus oocytes; format: biochemical
# T1 construct: TREK-2 amino acids 1–538; expressed in transfected cells; host or cells: Xenopus laevis oocytes, cRNA injection
# T1 sequence (P57789 1-538): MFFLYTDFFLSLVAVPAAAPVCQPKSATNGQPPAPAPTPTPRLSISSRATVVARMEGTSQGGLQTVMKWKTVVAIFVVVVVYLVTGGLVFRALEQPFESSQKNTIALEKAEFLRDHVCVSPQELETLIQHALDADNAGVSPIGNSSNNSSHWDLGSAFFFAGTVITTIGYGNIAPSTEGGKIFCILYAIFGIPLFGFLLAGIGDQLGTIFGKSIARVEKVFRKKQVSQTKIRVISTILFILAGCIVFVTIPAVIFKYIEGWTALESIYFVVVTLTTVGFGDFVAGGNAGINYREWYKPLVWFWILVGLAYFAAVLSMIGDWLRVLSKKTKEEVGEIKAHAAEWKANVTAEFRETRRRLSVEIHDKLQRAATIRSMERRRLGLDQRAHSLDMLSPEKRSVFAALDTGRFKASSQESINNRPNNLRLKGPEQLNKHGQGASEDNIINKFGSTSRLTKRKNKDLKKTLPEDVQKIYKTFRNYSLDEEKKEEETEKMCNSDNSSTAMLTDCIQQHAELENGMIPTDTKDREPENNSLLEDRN
# Description: (§1) For patch clamp recording from Xenopus oocytes, genes encoding full-length Homo sapiens TRAAK (UniProt Q9NYG8–2), TREK-1 (UniProt O95069), and TREK-2 (UniProt P57789) were codon optimized for eukaryotic expression, synthesized (Genewiz), and cloned into a modified pGEMHE vector using Xho1 and EcoR1 restriction sites. The transcribed messages encode H. sapiens TRAAK amino acids 1–393, TREK-1 amino acids 1–426, or TREK-2 amino acids 1–538 with an additional three amino acids (SNS) at the C terminus. TRAAK mutants were introduced by polymerase chain reaction (PCR). Linearized DNA was transcribed in vitro using T7 polymerase. Complementary RNA (0.1 to 10 ng for TRAAK, TREK-1, TREK-2, and mutants) in 50 nL H2O was injected into Xenopus laevis oocytes extracted from anesthetized frogs. Currents were recorded at 25 °C from inside-out patches excised from oocytes 1 to 5 d after RNA injection. […]
# (§2) Patches were evaluated with voltage-step protocols to confirm TRAAK expression and minimal non-specific leak based on reversal potential. Currents were recorded using an Axopatch 200B amplifier (Molecular Devices) at a bandwidth of 1 kHz and digitized with an Digidata 1550B (Molecular Devices) at 100–500 kHz using pClamp10.7 software. […] In an effort to minimize variability associated with differences in resting membrane tension, we targeted patches with low basal curvature and low resting channel activity and ensured measured pressure difference across the patch was as close to zero as possible at rest to prevent mechanical activation of channels. Data were analyzed using Clampfit 10.7, Excel, and Graphpad Prism software. […]
# To avoid cannabinoid absorption to plastic, cannabinoid solutions were made in glass vials and diluted by weight, perfusion was performed using glass tubing pulled from borosilicate glass Pasteur pipettes (Fisherbrand, Cat# 13–678-20C), and recordings were performed in glass chambers. Channel activity was continuously recorded during perfusion steps. […]
# TRAAKG165E = target: T2, TRAAKG165E (Homo sapiens, UniProt Q9NYG8, G139E); assay: Excised patch recording of TRAAK mutant G165E; format: biochemical
# T2 construct: The transcribed messages encode H. sapiens TRAAK amino acids 1–393; expressed in transfected cells; host or cells: Xenopus laevis oocytes, cRNA injection
# T2 sequence (Q9NYG8 1-393 G139E): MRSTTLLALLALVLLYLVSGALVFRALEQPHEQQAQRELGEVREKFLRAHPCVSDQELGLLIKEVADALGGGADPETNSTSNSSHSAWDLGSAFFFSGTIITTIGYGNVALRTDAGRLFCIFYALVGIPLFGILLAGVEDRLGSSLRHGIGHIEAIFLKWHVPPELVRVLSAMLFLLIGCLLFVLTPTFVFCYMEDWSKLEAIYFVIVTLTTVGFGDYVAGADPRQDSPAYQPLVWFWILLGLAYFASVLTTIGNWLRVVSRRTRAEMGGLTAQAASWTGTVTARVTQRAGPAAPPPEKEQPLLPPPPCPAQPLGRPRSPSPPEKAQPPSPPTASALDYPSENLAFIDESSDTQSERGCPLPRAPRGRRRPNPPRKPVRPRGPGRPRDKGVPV
# Description: as §1, with “Complementary RNA (0.1 to 10 ng for TRAAK, TREK-1, TREK-2, and mutants) in 50 nL H2O was injected into Xenopus laevis oocytes extracted from anesthetized frogs.” left out
# as §2, with “channels.” for “channels. Data were analyzed using Clampfit 10.7, Excel, and Graphpad Prism software.”
# TRPV1–4 = system: TRPV1–4; parameters: method as in PMID 30697147, PMID 31566564; conditions: activation; cited from earlier work
structure (smiles),measurement,setting,value
"C=C(C)[C@@H]1CCC(C)=C[C@H]1c1c(O)cc(CCCCC)cc1O [CBD, Cannabidiol]",IC50,Homo sapiens TREK-2,1300 nM
same,Hill-coefficient,Homo sapiens TREK-2; TREK-2 dose-response,3.8
same,fold less sensitive than TRAAK,Homo sapiens TREK-2; TREK-2 vs TRAAK,~ 10 fold
same,IC50,TRAAKG165E,162 ± 8 nM
same,EC50,TRPV1–4,1000 to 4000 nM
